Test results reported in patent US8163776B2, “Method of immunomodulation using thione-forming disulfides” (Grassetti family Trust, priority 2001, dated 2012).
Where “and” joins values, the source holds several entries; their conditions need not be identical. Identical values can stand only once.

Experiments:
[1] = Weight gain of mice on CPDS diet; format: in vivo, BALB/c mice
Procedure: To prepare a CPDS diet, a total of 3 kilos of Standard Purina chow was reduced to powder using a grinder. About 12 g of CPDS was added to the powder and thoroughly mixed, re-hydrated and reconstituted into pellets. Pellets were allowed to dry overnight.
Male adult BALB/c mice were weighed and randomly divided to form the experimental groups. Mice were allowed to acclimatized 3 days prior to the beginning of the experiments. Mice from the control normal diet groups were fed ad libitum with standard Purina mouse chow. Mice from the CPDS treated groups were fed ad libitum with the CPDS preparation. The amount of food given was weighted and recorded to allow the evaluation of the CPDS dosage.
The weight gained by each mice was evaluated weekly and prior to sacrifice. Mice were sacrificed by overexposure to CO2. The spleen from each mouse was collected under sterile conditions, transferred into HBSS buffered solution and kept on ice until used for other studies disclosed. Experiments were performed on the same day.

[2] = test system: splenocytes; experiment: Total splenocyte (lymphocyte) count, trypan blue exclusion; format: in vivo, BALB/c mice; conditions: for Total Lymphocyte Counts: spleen
Procedure: Splenocytes were isolated by obtaining spleen from the sacrificed mice on the same experimental day, homogenizing the spleen using a 50-M mesh screen, and suspending the homogenate in 25 ml of RPMI 1640. The splenocyte suspension was washed and then spun at 1200 rpm for 5 minutes. The red blood cells were lysed by an osmotic choc with distilled water. The splenocyte suspension was washed and spun at 1200 rpm for 5 minutes. The splenocytes were suspended in complete RPMI media (90% RPMI 1640, 10% FBS, antibiotics 1×, HEPES 1 mM) and the suspension was filtered through cotton wool. Cells were counted using trypan blue exclusion method. Total splenocyte count was recorded (Table 7). Cells were kept on ice and diluted to the appropriate concentration for the corresponding experimental procedures.
To count splenocytes, two chambers of the hemacytometer were counted and the mean was calculated. The total splenocyte count was calculated by the following formula: Total splenocyte count=mean count×10 (dilution factor)×10^4×suspension volume. The mean was calculated for each control and treated group. Student's T test was performed between the control group and the treated group. The p value was calculated for statistical significance. Following spleen homogenization, the total number of splenocytes isolated was counted using a standard trypan blue method which discriminates between viable and non viable cells.

[3] = test system: antibody production to keyhole limpet hemocyanin (KLH); experiment: Humoral response to KLH immunization, immunodot blot; format: in vivo, BALB/c mice
Procedure: To perform KLH immunization, KLH was prepared in sterile D-PBS at a concentration of 150 μg in 0.1 ml. Animals were injected 0.1 ml of the preparation subcutaneously. After 15 days and just before sacrifice, a blood sample was collected from each mouse by cardiac puncture. Serum was obtained by centrifugation, aliquoted and frozen (−20° C.) until used.
Immunodot blot assay was used to assess antibody production. Hybond-ECL membrane was used in the immunodot blot assay. A volume of 2 μl of different concentrations (0, 10, 50, 250 μg/ml) of KLH antigen was placed on the dry membrane. Antigen dots were allowed to dry overnight at 4° C. Membrane was blocked with a dry milk solution for 1 hour. Two μl of the antiserum diluted ½, ¼, 1/16, 1/32, 1/64, 1/128 and undiluted was put on the blot and incubated for 1 hour. The membrane was washed with TES buffer solution 3 times. Goat anti-mouse IgG antibodies coupled with horseradish peroxidase were put on the blot and incubated for 1 hour. The membrane was washed with TBS buffer solution 3 times. […] Revelation time was 1 minute. The membrane was exposed for 18 hours to film.
The lower serum dilution where an antibody response is apparent was chosen to calculate antibody titer. The antibody titer corresponded to the inverse of the dilution. The titer was converted to log2, e.g., 8=3 (log2). Results were compared and Student's T test was performed between the control group and the treated group. The p value was calculated for statistical significance.
For this experiment, animals were treated with CPDS for 30 days, immunized subcutaneously with keyhole limpet hemocyanin (KLH) and treated an additional 15 days, at which point blood was collected for antibody detection. […] The antibody titer to KLH was 1/4.29 (2.13 log2) for control group and 1/2.00 (1.00 log2) for CPDS-treated group. The decrease in the antibody production may be partially related to the significant decrease in the B cell population observed in the immunophenotyping results. However, no loss of reactivity was observed from the lymphoproliferative assay when B cells were stimulated with LPS.

[4] = literature statement; cited from earlier work
[5] = Group 2 (30 days CPDS diet), group Mean ± S.D.
[6] = Group 2 (30 days CPDS diet), individual mice
[7] = Group 4 (45 days CPDS diet), group Mean ± S.D.
[8] = Group 4 (45 days CPDS diet), individual mice
[9] = Group 6 (6 days CPDS diet), group Mean ± S.D.
[10] = Group 6 (6 days CPDS diet), individual mice

SMILES: O=C(O)c1ccc(SSc2ccc(C(=O)O)cn2)nc1 [CPDS, 6,6′-dithiodinicotinic acid]
- Animal weight, Day 0 [1, 5]: 14.87 ± 1.18 g
- Animal weight, Day 6 [1, 5]: 17.89 ± 1.2 g
- Animal weight, Day 14 [1, 5]: 19.36 ± 0.9 g
- Animal weight, Day 21 [1, 5]: 20.50 ± 0.9 g
- Animal weight, Day 28 [1, 5]: 22.04 ± 1.0 g
- Animal weight, Day 0 [1, 6]: 15.87 g and 15.18 g and 12.76 g and 15.67 g and 15.69 g and 15.29 g and 15.25 g and 13.28 g
- Animal weight, Day 6 [1, 6]: 18.64 g and 19.84 g and 15.20 g and 18.31 g and 18.66 g and 18.54 g and 17.98 g and 16.92 g
- Animal weight, Day 14 [1, 6]: 19.66 g and 20.46 g and 17.47 g and 19.96 g and 19.78 g and 19.09 g and 19.84 g and 18.65 g
- Animal weight, Day 21 [1, 6]: 20.10 g and 21.36 g (2×) and 18.72 g and 21.20 g and 20.58 g and 20.79 g and 19.87 g
- Animal weight, Day 28 [1, 6]: 21.96 g and 22.76 g and 19.99 g and 22.98 g and 22.80 g and 22.31 g and 22.57 g and 20.94 g
- Animal weight, Day 0 [1, 7]: 14.57 ± 0.8 g
- Animal weight, Day 6 [1, 7]: 17.74 ± 1.0 g
- Animal weight, Day 14 [1, 7]: 18.92 ± 1.1 g
- Animal weight, Day 21 [1, 7]: 19.86 ± 1.1 g
- Animal weight, Day 28 [1, 7]: 21.60 ± 1.2 g
- Animal weight, Day 35 [1, 7]: 22.19 ± 1.1 g
- Animal weight, Day 45 [1, 7]: 22.78 ± 1.1 g
- Animal weight, Day 0 [1, 8]: 13.58 g and 16.07 g and 14.28 g and 13.75 g and 14.89 g and 15.10 g and 13.67 g and 15.20 g
- Animal weight, Day 6 [1, 8]: 17.25 g and 18.57 g and 17.03 g and 16.46 g and 17.79 g and 18.38 g and 16.98 g and 19.46 g
- Animal weight, Day 14 [1, 8]: 18.57 g (2×) and 20.58 g and 18.25 g and 17.66 g and 18.83 g and 18.02 g and 20.86 g
- Animal weight, Day 21 [1, 8]: 19.72 g and 21.59 g and 19.22 g and 18.38 g and 19.40 g and 19.35 g and 19.45 g and 21.74 g
- Animal weight, Day 28 [1, 8]: 21.40 g (2×) and 23.72 g and 20.35 g and 20.18 g and 21.41 g and 21.14 g and 23.19 g
- Animal weight, Day 35 [1, 8]: 21.82 g and 24.00 g and 20.91 g and 20.95 g and 22.47 g and 21.39 g and 22.28 g and 23.68 g
- Animal weight, Day 45 [1, 8]: 22.71 g and 24.66 g and 20.96 g and 21.78 g and 23.15 g and 22.10 g and 23.09 g and 23.80 g
- Animal weight, Day 0 [1, 9]: 15.15 ± 1.1 g
- Animal weight, Day 6 [1, 9]: 18.40 ± 0.7 g
- Animal weight, Day 0 [1, 10]: 13.90 g and 16.04 g and 15.50 g
- Animal weight, Day 6 [1, 10]: 17.60 g and 19.18 g and 18.43 g
- Course of animal weight (in words) ([1]; group fed CPDS diet for 45 days, food intake constant): stabilized after day 35
- Weight gain vs group on normal Purina chow (in words) ([1]; group fed CPDS for 45 days, p=0.01432): statistically significant lower weight gain
- Weight gain (in words) ([1]; groups fed CPDS diet for 6 and 30 days): constant and normal
- Total Lymphocyte Counts, variation ([2]; Group 2, 30 days on CPDS diet vs group 1 (normal diet)): −15.58%
- Total Lymphocyte Counts ([2]; Group 2, 30 days on CPDS diet, group Mean): 5.01 × 10^7
- Total Lymphocyte Counts ([2]; Group 2, 30 days on CPDS diet, individual mice): 3.94 × 10^7 and 5.18 × 10^7 and 6.03 × 10^7 and 4.47 × 10^7 and 5.54 × 10^7 and 5.91 × 10^7 and 4.77 × 10^7 and 4.25 × 10^7
- Total Lymphocyte Counts, variation ([2]; Group 6, 6 days on CPDS diet vs group 5 (normal diet)): −30.97%
- Total Lymphocyte Counts ([2]; Group 6, 6 days on CPDS diet, group Mean): 4.16 × 10^7
- Total Lymphocyte Counts ([2]; Group 6, 6 days on CPDS diet, individual mice): 3.08 × 10^7 and 4.58 × 10^7
- Necrosis or loss of splenocyte viability ([2]; after 6 and 30 days CPDS diet): No signs of necrosis or loss of splenocyte viability were observed
- Humoral response to KLH, variation (%) ([3]; Group 4, 45 days on CPDS diet vs Group 3): −52.94%
- Serum dilution (lowest with apparent antibody response to KLH) ([3]; Group 4, 45 days on CPDS diet, KLH s.c. at day 30, serum 15 days later, individual mice): 1/4 (4×) and 0 (4×)
- dilution log 2 (antibody titer to KLH) ([3]; Group 4, 45 days on CPDS diet, Mean ± S.D.): 1.00 log 2 and 1.00 ± 1.07 log 2
- dilution log 2 (antibody titer to KLH) ([3]; Group 4, 45 days on CPDS diet, individual mice): 2 log 2 (4×) and 0 log 2 (4×)
- Toxicity [4]: low toxicity
